{"source": "patent US8486634B2", "about": "“Amplifying bisulfite-treated template” (Ambergen, Inc., priority 2007, dated 2013)", "target": "T1, protein kinase Cα (PKCα) (Homo sapiens, UniProt P17252)", "T1 construct": "isolate and photo-release endogenous PKCα from the undiluted detergent fractionated HeLa cell extracts; endogenous in cells; host or cells: HeLa cells (ATCC)", "test": "Phorbol ester (PMA) mediated PKCα sub-cellular translocation, measured by kinase activity after isolation with photocleavable antibodies", "format": "cell-based", "conditions": "cultured HeLa cells stimulated with 200 nM PMA for 5 min, detergent-fractionated, relative distribution based on kinase activity, n=4", "experimental": "FIG. 20. Phorbol ester (PMA) mediated protein kinase Cα (PKCα) sub-cellular translocation as measured by functional activity following isolation with photocleavable antibodies. Cultured HeLa cells were stimulated with 200 nM PMA for 5 min and detergent fractionated into the cytosol and membrane compartments prior to isolation and purification with the photocleavable antibodies.\nCultured HeLa cells (ATCC; Manassas, Va.) were stimulated for 5 min with 200 nM Phorbol-12-Myristate-13-Acetate (PMA; EMD Biosciences, Inc., San Diego, Calif.) and subsequently detergent fractionated into sub-cellular compartments according to reported procedures [Ramsby et al. (1994) Electrophoresis 15, 265-277; Ramsby & Makowski. (1999) Methods Mol Biol 112, 53-66; Chiang et al. (2000) J Biochem Biophys Methods 46, 53-68]. PMA is a potent activator of PKCα and is well known to cause translocation of the kinase from the cytosolic to the membrane sub-cellular compartments [Ross & Joyner. (1997) Endothelium 5, 321-332; Bazan & Rapoport. (1996) J Pharmacol Toxicol Methods 36, 87-95; Yazlovitskaya & Melnykovych. (1995) Cancer Lett 88, 179-183]. […]"}
{"smiles": "CCCCCCCCCCCCCC(=O)O[C@@H]1[C@@H](C)[C@@]2(O)[C@@H](C=C(CO)C[C@]3(O)C(=O)C(C)=C[C@@H]23)[C@@H]2C(C)(C)[C@]12OC(C)=O", "note": "[PMA, Phorbol-12-Myristate-13-Acetate]", "values": [{"measurement": "PKCα distribution, membrane", "setting": "baseline 21±2% membrane", "value": "84±3", "unit": "%"}, {"measurement": "PKCα distribution, cytosol", "setting": "baseline 79±7% cytosol", "value": "16±4", "unit": "%"}]}
